The record followed here is patent US20140135310A1, “SULPHONAMIDE DERIVATIVES OF ALICYCLIC AMINES FOR THE TREATMENT OF CENTRAL NERVOUS SYSTEM DISEASES” (Adamed Sp. z o.o., priority 2011, published 2014).

Read-outs that look alike come from different tables or passages of the source.

What all share (assay type): cell-based
Test [1] has as its target 5-HT2A serotoninergic receptors (Homo sapiens, UniProt P28223). The experiment in a line: Cellular functional assay, 5-HT2A serotoninergic receptors. To be noted: for Kb: apparent dissociation constant, modified Cheng Prusoff equation, read-out: 5-HT2A antag Kb. As to the method:
(§1) The results are expressed as a percent of control specific agonist response ((measured specific response/control specific agonist response)×100) obtained in the presence of the test compounds.
(§2) The EC50 values (concentration producing a half-maximal specific response) and IC50 values (concentration causing a half-maximal inhibition of the control specific agonist response) were determined by non-linear regression analysis of the concentration-response curves generated with mean replicate values using Hill equation curve fitting (Y=D+[(A−D)/(1+(C/C50)nH)], where Y=specific response, D=minimum specific response, A=maximum specific response, C=compound concentration, and C50=EC50 or IC50, and nH=slope factor).
(§3) For the antagonists, the apparent dissociation constants (Kb) were calculated using the modified Cheng Prusoff equation (Kb=IC50/(1+(A/EC50A)), where A=concentration of reference agonist in the assay, and EC50A=EC50 value of the reference agonist).

In test [2] the target is D2 dopaminergic receptors (Homo sapiens, UniProt P14416). The experiment in a line: Cellular functional assay, D2 dopaminergic receptors. To be noted: for D2 ag [%]: agonism, percent of control specific agonist response (3 μM dopamine for control); for D2 ag [%] / D2 antag [%]: D2S (h), HEK-293 cells; for D2 antag [%]: antagonism, stimulus dopamine (30 nM); for Kb: apparent dissociation constant, modified Cheng Prusoff equation, read-out: D2 antag Kb. The procedure:
as §1
as §2, with “factor). This analysis was performed using a software developed at Cerep (Hill software) and validated by comparison with data generated by the commercial software SigmaPlot® 4.0 for Windows® (© 1997 by SPSS Inc.).” for “factor).”
as §3

Test [3] addresses T1, D4 dopaminergic receptors (Homo sapiens, UniProt P21917).
T1 sequence (P21917 1-419): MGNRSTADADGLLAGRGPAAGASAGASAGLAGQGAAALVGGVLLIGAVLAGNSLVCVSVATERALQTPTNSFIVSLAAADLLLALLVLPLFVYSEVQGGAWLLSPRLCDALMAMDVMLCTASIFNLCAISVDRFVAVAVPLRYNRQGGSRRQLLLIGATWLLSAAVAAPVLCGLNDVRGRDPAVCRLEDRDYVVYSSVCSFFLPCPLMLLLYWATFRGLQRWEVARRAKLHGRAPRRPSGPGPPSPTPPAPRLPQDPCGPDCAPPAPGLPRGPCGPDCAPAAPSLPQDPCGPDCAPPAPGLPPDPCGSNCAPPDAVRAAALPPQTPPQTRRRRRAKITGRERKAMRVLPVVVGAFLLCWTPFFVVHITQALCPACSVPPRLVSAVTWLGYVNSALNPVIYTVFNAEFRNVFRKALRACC
Description: Cellular functional assay, D4 dopaminergic receptors. To be noted: D4.4 (h), CHO cells; for D4 ag [%]: agonism, percent of control specific agonist response (300 nM dopamine for control); for D4 antag [%]: antagonism, stimulus dopamine (100 nM). As to the method:
as §1
as §2, with “factor). This analysis was performed using a software developed at Cerep (Hill software) and validated by comparison with data generated by the commercial software SigmaPlot® 4.0 for Windows® (© 1997 by SPSS Inc.).” for “factor).”
as §3

Test [4] has as its target 5-HT6 serotoninergic receptors (Homo sapiens, UniProt P50406). Description: Cellular functional assay, 5-HT6 serotoninergic receptors. To be noted: for 5-HT6 ag [%]: agonist mode, percent of control specific agonist response; for Kb: apparent dissociation constant, modified Cheng Prusoff equation, read-out: 5-HT6 antag Kb. The procedure:
as §1
as §2, with “factor). This analysis was performed using a software developed at Cerep (Hill software) and validated by comparison with data generated by the commercial software SigmaPlot® 4.0 for Windows® (© 1997 by SPSS Inc.).” for “factor).”
as §3

The target in test [5] is 5-HT7 serotoninergic receptors (Homo sapiens, UniProt P34969). The experiment in a line: Cellular functional assay, 5-HT7 serotoninergic receptors. To be noted: for 5-HT7 ag [%]: agonist mode, percent of control specific agonist response; for Kb: apparent dissociation constant, modified Cheng Prusoff equation, read-out: 5-HT7 antag Kb. As to the method:
as §1
as §2, with “factor). This analysis was performed using a software developed at Cerep (Hill software) and validated by comparison with data generated by the commercial software SigmaPlot® 4.0 for Windows® (© 1997 by SPSS Inc.).” for “factor).”
as §3

In test [6] the target is D3 dopaminergic receptors (Homo sapiens, UniProt P35462). The experiment in a line: Cellular functional assay, D3 dopaminergic receptors. To be noted: for D3 ag [%]: agonism, percent of control specific agonist response (0.3 μM dopamine for control); for D3 ag [%] / D3 antag [%]: D3 (h), CHO cells; for D3 antag [%]: antagonism, stimulus dopamine (10 nM); for Kb: apparent dissociation constant, modified Cheng Prusoff equation, read-out: D3 antag Kb. The procedure: as §1
Sequence of D3 dopaminergic receptors (P35462 whole entry): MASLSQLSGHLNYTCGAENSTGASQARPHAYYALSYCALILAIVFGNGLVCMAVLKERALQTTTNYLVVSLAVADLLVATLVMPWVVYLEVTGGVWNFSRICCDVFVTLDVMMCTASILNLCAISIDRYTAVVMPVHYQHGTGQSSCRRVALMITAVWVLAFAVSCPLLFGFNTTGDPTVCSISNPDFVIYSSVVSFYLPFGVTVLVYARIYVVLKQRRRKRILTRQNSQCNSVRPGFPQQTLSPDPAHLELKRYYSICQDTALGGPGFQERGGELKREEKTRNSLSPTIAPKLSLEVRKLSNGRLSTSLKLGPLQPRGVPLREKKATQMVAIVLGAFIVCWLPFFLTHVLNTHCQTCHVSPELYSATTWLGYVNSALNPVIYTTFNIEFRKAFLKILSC
as §2, with “factor). This analysis was performed using a software developed at Cerep (Hill software) and validated by comparison with data generated by the commercial software SigmaPlot® 4.0 for Windows® (© 1997 by SPSS Inc.).” for “factor).”
as §3

Setting [7] is: agonist mode, percent of control specific agonist response.

Sequence of 5-HT6 serotoninergic receptors (P50406 whole entry): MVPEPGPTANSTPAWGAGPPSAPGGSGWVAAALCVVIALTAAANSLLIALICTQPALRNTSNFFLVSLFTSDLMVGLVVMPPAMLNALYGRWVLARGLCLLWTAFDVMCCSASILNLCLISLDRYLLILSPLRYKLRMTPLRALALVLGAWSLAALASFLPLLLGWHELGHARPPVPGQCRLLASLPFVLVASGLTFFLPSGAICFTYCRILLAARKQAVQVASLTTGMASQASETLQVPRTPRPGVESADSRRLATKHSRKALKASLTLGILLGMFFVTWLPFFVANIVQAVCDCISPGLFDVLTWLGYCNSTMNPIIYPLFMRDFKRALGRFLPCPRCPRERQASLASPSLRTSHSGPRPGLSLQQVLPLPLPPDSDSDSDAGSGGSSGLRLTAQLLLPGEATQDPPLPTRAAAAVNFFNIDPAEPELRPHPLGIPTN
Sequence of 5-HT2A serotoninergic receptors (P28223 whole entry): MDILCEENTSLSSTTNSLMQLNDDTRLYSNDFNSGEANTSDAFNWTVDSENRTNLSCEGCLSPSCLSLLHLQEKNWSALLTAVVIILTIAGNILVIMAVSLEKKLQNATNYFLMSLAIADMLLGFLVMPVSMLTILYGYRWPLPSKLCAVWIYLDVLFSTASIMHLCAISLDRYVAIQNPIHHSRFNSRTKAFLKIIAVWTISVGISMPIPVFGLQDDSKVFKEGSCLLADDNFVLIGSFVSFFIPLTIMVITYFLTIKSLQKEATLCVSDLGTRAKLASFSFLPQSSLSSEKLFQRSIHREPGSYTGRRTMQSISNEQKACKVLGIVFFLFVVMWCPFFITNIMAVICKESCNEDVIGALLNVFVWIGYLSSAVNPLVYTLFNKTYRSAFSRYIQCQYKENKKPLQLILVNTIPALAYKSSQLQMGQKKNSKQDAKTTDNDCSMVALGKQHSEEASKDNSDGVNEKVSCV
Sequence of D2 dopaminergic receptors (P14416 whole entry): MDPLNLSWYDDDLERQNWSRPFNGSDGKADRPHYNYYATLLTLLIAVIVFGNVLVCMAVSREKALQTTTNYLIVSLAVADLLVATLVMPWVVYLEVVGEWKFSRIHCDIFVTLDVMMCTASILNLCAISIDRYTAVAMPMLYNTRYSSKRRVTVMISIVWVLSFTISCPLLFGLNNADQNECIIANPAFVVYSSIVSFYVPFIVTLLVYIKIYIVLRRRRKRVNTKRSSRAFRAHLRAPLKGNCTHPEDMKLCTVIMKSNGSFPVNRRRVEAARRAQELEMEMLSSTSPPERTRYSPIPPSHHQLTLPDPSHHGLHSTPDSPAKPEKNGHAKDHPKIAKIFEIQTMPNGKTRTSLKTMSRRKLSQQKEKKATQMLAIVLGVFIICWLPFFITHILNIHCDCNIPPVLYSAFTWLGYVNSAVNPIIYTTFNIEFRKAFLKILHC
Sequence of 5-HT7 serotoninergic receptors (P34969 whole entry): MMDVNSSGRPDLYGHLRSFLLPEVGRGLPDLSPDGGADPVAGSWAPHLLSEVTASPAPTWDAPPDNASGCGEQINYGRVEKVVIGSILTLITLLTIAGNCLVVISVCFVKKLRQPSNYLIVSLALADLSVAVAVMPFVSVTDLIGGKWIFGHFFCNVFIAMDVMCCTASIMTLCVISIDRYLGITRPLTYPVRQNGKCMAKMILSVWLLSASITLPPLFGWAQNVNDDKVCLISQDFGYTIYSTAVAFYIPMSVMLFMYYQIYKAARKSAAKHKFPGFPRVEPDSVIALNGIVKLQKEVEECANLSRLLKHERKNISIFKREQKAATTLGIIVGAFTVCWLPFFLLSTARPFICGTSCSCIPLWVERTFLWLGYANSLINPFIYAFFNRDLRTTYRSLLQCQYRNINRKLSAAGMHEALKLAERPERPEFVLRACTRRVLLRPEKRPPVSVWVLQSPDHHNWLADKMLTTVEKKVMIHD

As to `O=S(=O)(NC1CCN(CCCc2noc3cc(F)ccc23)C1)c1cccc2ccccc12` (stereo not shown) [Compound 20, N-[1-[3-(6-Fluoro-1,2-benzoxazol-3-yl)propyl]pyrrolidin-3-yl]naphthalene-1-sulphonamide], the “5-HT2A ag [%]” value in test [1] worked out at 0%. In test [2], the “D2 ag [%]” value stood at 4% and the “D2 antag [%]” value is listed as 32%. In addition, in test [3], the “D4 ag [%]” value was 17% and the “D4 antag [%]” value is reported as 79%. In test [4], the “5-HT6 ag [%]” value is listed as 1%. The “5-HT7 ag [%]” value in test [5] is −2%.
Turning to `O=S(=O)(NC1CCN(CCCc2noc3cc(F)ccc23)C1)c1csc2ccccc12` (stereo not shown) [Compound 26, N-[1-[3-(6-Fluoro-1,2-benzoxazol-3-yl)propyl]pyrrolidin-3-yl]-benzothiophene-3-sulphonamide], in test [1] (setting [7]), the “5-HT2A ag [%]” value is recorded as −1%. For the same compound, in test [2], the “D2 ag [%]” value is reported as 3% and the “D2 antag [%]” value amounted to 68%. In addition, in test [3], the “D4 ag [%]” value is reported as −4% and the “D4 antag [%]” value amounted to 88%. In addition, the “5-HT6 ag [%]” value in test [4] was found to be 0%. Also, the “5-HT7 ag [%]” value in test [5] is −3%.
For `O=S(=O)(N[C@@H]1CCN(CCCc2noc3cc(F)ccc23)C1)c1cc2ccc(Cl)cc2s1` [Compound 198, 6-Chloro-N-[(3R)-1-[3-(6-fluoro-1,2-benzoxazol-3-yl)propyl]pyrrolidin-3-yl]benzothiophene-2-sulphonamide], in test [1] (setting [7]), the “5-HT2A ag [%]” value is listed as −3%. In test [2], the “D2 ag [%]” value was 4% and the “D2 antag [%]” value stood at 83%. For the same compound, in test [6], the “D3 ag [%]” value is −17% and the “D3 antag [%]” value turned out to be 97%. For the same compound, in test [4], the “5-HT6 ag [%]” value was −1%. Also, the “5-HT7 ag [%]” value in test [5] was 1%.
For `O=S(=O)(NC1CCN(CCCc2noc3cc(F)ccc23)C1)c1cc2ccccc2s1` (stereo not shown) [Compound 25, N-[1-[3-(6-Fluoro-1,2-benzoxazol-3-yl)propyl]pyrrolidin-3-yl]-benzothiophene-2-sulphonamide], in test [1], the “5-HT2A ag [%]” value is on record as −2% and the Kb was determined as 4.7 nM. For the same compound, in test [2], the “D2 ag [%]” value amounted to 3%, the “D2 antag [%]” value was determined as 89% and the Kb worked out at 2.3 nM. Also, in test [6], the “D3 ag [%]” value is 0%, the “D3 antag [%]” value came to 82% and the Kb is 8 nM. Moreover, in test [4], the “5-HT6 ag [%]” value is given as 0% and the Kb came out at 10 nM. For the same compound, in test [5], the “5-HT7 ag [%]” value is on record as −2% and the Kb was 1.4 nM.
For `Cc1cc(S(=O)(=O)N[C@@H]2CCN(CCCc3noc4cc(F)ccc34)C2)c(C)s1` [Compound 222, N-[(3R)-1-[3-(6-Fluoro-1,2-benzoxazol-3-yl)propyl]pyrrolidin-3-yl]-2,5-dimethyl-thiophene-3-sulphonamide], in test [1], the “5-HT2A ag [%]” value is −1%. In test [2], the “D2 ag [%]” value worked out at 6% and the “D2 antag [%]” value is listed as 65%. In addition, in test [3], the “D4 ag [%]” value was 6% and the “D4 antag [%]” value worked out at 58%. The “5-HT6 ag [%]” value in test [4] is reported as −1%. Further, in test [5], the “5-HT7 ag [%]” value was −1%.
Turning to `O=S(=O)(NC1CCN(CCCc2noc3cc(F)ccc23)C1)c1cc2ccc(F)cc2s1` (stereo not shown) [Compound 234, 6-Fluoro-N-[1-[3-(6-fluoro-1,2-benzoxazol-3-yl)propyl]pyrrolidin-3-yl]benzothiophene-2-sulphonamide], the “5-HT2A ag [%]” value in test [1] worked out at 1%. In test [2], the “D2 ag [%]” value turned out to be 2% and the “D2 antag [%]” value came out at 91%. In test [6], the “D3 ag [%]” value is −14% and the “D3 antag [%]” value turned out to be 89%. The “5-HT6 ag [%]” value in test [4] was −1%. The “5-HT7 ag [%]” value in test [5] is given as 0%.
In the case of `O=S(=O)(N[C@@H]1CCN(CCCc2noc3cc(F)ccc23)C1)c1cc2ccccc2s1` [Compound 196, N-[(3R)-1-[3-(6-Fluoro-1,2-benzoxazol-3-yl)propyl]pyrrolidin-3-yl]benzo-thiophene-2-sulphonamide], in test [1], the “5-HT2A ag [%]” value is reported as 0% and the Kb amounted to 8.3 nM. Besides, in test [2], the “D2 ag [%]” value was 0%, the “D2 antag [%]” value is listed as 95% and the Kb was determined as 10 nM. Further, in test [6], the “D3 ag [%]” value is listed as −16%, the “D3 antag [%]” value is reported as 77% and the Kb stood at 71 nM. In test [4], the “5-HT6 ag [%]” value was −2% and the Kb worked out at 38 nM. Further, in test [5], the “5-HT7 ag [%]” value was determined as 0% and the Kb stood at 0.57 nM.
Take `Cc1cc(S(=O)(=O)N[C@H]2CCN(CCCc3noc4cc(F)ccc34)C2)c(C)s1` [Compound 223, N-[(3S)-1-[3-(6-Fluoro-1,2-benzoxazol-3-yl)propyl]pyrrolidin-3-yl]-2,5-dimethyl-thiophene-3-sulphonamide]: the “5-HT2A ag [%]” value in test [1] worked out at 0%. Besides, in test [3], the “D4 ag [%]” value stood at 4% and the “D4 antag [%]” value came to 22%. The “5-HT6 ag [%]” value in test [4] is −1%. The “5-HT7 ag [%]” value in test [5] was 0%.
Regarding `O=S(=O)(N[C@@H]1CCN(CCCc2noc3cc(F)ccc23)C1)c1ccc2ccccc2c1` [Compound 206, N-[(3R)-1-[3-(6-Fluoro-1,2-benzoxazol-3-yl)propyl]pyrrolidin-3-yl]naphthalene-2-sulphonamide], the “5-HT2A ag [%]” value in test [1] is listed as −1%. Further, in test [2], the “D2 ag [%]” value was 1% and the “D2 antag [%]” value is given as 96%. Besides, in test [6], the “D3 ag [%]” value worked out at 3% and the “D3 antag [%]” value is 77%. Also, the “5-HT6 ag [%]” value in test [4] was −2%. The “5-HT7 ag [%]” value in test [5] is listed as −1%.
With `O=S(=O)(NC1CCN(CCCc2noc3cc(F)ccc23)C1)c1ccc2cc(Cl)ccc2c1` (stereo not shown) [Compound 23, 6-Chloro-N-[1-[3-(6-fluoro-1,2-benzoxazol-3-yl)propyl]pyrrolidin-3-yl]naphthalene-2-sulphonamide], the “5-HT2A ag [%]” value in test [1] (setting [7]) is recorded as −2%. Also, in test [2], the “D2 ag [%]” value worked out at 1% and the “D2 antag [%]” value worked out at 87%. Also, in test [6], the “D3 ag [%]” value is −10% and the “D3 antag [%]” value turned out to be 68%. For the same compound, the “5-HT6 ag [%]” value in test [4] is recorded as −1%. Besides, the “5-HT7 ag [%]” value in test [5] is on record as −2%.
As for `Cc1c(S(=O)(=O)N[C@@H]2CCN(CCCc3noc4cc(F)ccc34)C2)sc2ccc(F)cc12` [Compound 202, 5-Fluoro-N-[(3R)-1-[3-(6-fluoro-1,2-benzoxazol-3-yl)propyl]pyrrolidin-3-yl]-3-methyl-benzothiophene-2-sulphonamide], in test [1] (setting [7]), the “5-HT2A ag [%]” value turned out to be 0%. Besides, in test [2], the “D2 ag [%]” value is given as 0% and the “D2 antag [%]” value was found to be 95%. In test [6], the “D3 ag [%]” value is on record as −5% and the “D3 antag [%]” value is reported as 81%. Moreover, the “5-HT6 ag [%]” value in test [4] turned out to be 1%. Also, the “5-HT7 ag [%]” value in test [5] is on record as −3%.
On to `O=S(=O)(N[C@@H]1CCN(CCCc2noc3cc(F)ccc23)C1)c1cc2ccccc2o1` [Compound 214, N-[(3R)-1-[3-(6-Fluoro-1,2-benzoxazol-3-yl)propyl]pyrrolidin-3-yl]benzo-furan-2-sulphonamide], for which the “5-HT2A ag [%]” value in test [1] (setting [7]) is −2%. In addition, in test [2], the “D2 ag [%]” value is given as 3% and the “D2 antag [%]” value was 89%. Moreover, in test [6], the “D3 antag [%]” value is reported as 117%. Also, the “5-HT6 ag [%]” value in test [4] was −4%. Besides, the “5-HT7 ag [%]” value in test [5] is given as −1%.
